Source: PubChem BioAssay AID2305 (GlaxoSmithKline (GSK), 2010)

System: P. falciparum 3D7 growth, pLDH absorbance
Assay: blood-stage malaria parasite growth potency – strain 3D7, dose response (AID 2305)

Row | SMILES | IC50
1 | c1ccc(C2CCC(N3CCC(N4CCCC4)CC3)CC2)cc1 (stereo not given) | 670 nM
2 | C=CC[C@H](C[C@H](O)[C@H](Cc1ccccc1)NC(=O)c1ccc(-c2cccnn2)cc1)C(=O)NC1CCCCC1 | 1190 nM
3 | NC1=NC2(CCCCC2)N(Cc2ccc(Cl)c(Cl)c2)C(N)=N1 | 620 nM
4 | COc1ccc(N2CCN(CCCCNCc3ccc(NC(=O)c4cc(Cl)cc(Cl)c4)cc3)CC2)c(OC)c1 | 250 nM
5 | O=C(N[C@@H](Cc1ccccc1)[C@H](O)CNC1CCOCC1)c1cc(C2CCCC2)cc(N2CCCCS2(=O)=O)c1 | 200 nM
6 | O=C(Nc1ccc(OC2CCN(Cc3ccco3)CC2)c(Cl)c1)c1ccc2ncccc2c1 | 950 nM
7 | COc1c(C2CCN(CCCCNC(=O)c3ccc(C)c(-c4ccc(C(F)(F)F)cc4)c3)CC2)ccc2c1CCCC2 | 880 nM
8 | Cc1ccc2ccncc2c1N | 700 nM
9 | NC(=O)c1ccsc1NC(=O)CNC(c1ccccc1)c1ccccc1 | 940 nM
10 | CCCN1CCc2c(sc3nc(SCC(=O)Nc4ccc(C)cc4)n(-c4ccc(C)cc4)c(=O)c23)C1 | 870 nM
11 | CN1CCC(N(Cc2ccc(-c3ccc(C(F)(F)F)cc3)cc2)C(=O)Cn2c(SCc3cccc(F)c3F)cc(=O)c3c2CCC3)CC1 | 160 nM
12 | CCCCCCN1CCCN(Cc2ccc(C(=O)Nc3ccc(Cl)cc3)cc2)CC1 | 1210 nM
13 | COc1ccc2nccc([C@@H](O)CN3CCC(NCc4ccc5c(c4)NC(=O)C(C)S5)CC3)c2c1 (stereo not given in full) | 200 nM
14 | Nc1c2c(nc3ccc(NC(=O)c4ccc([N+](=O)[O-])cc4)cc13)CCCC2 | 240 nM
15 | COc1ccc(C(=O)N[C@@H](CC(C)C)C(=O)NC2CC[C@@H](C)N(C(=O)Nc3ccc(Cl)cc3)CC2=O)cc1OCCN1CCOCC1 (stereo not given in full) | 150 nM
16 | Cc1[nH]c(C)c(-c2ccc(-c3ccc4c(c3)OCO4)nc2)c(=O)c1Br | 190 nM
17 | CC[C@H](C)CNC(=O)c1cncc(-c2ccc(CNC3Cc4ccccc4C3)cc2)c1 | 830 nM
18 | Cc1ccc(S(=O)(=O)Nc2ccc(Nc3nccc(Nc4cccc5[nH]ncc45)n3)cc2)cc1 | 960 nM
19 | CN1c2ccccc2Sc2cc(CNCCSCCNCc3ccc4c(c3)Sc3ccccc3N4C)ccc21 | 1010 nM
20 | CCN(CCS(C)(=O)=O)Cc1ccc(-c2ccc3ncnc(Nc4ccc(OCc5cccc(F)c5)c(Cl)c4)c3c2)o1 | 610 nM
21 | CCCC(C)Nc1nc(C)cc(N[C@@H](Cc2ccccc2)C(=O)NCc2cccc(F)c2)n1 (stereo not given in full) | 880 nM
22 | O=C(Nc1cccc(CN2CCCN(Cc3ccc(O)cc3)CC2)c1)c1cccc(C(F)(F)F)c1 | 310 nM
23 | CCc1cccc(-c2cc(=N)n(C)c3nc(N)[nH]c(=O)c23)c1 | 1120 nM
24 | CN(C)CCOc1cc(NC(=O)Nc2cccc3c(-c4ccncc4)cccc23)ccc1I | 730 nM
25 | COc1ccc(CCCc2nc(N)nc(N)c2-c2ccc(Cl)cc2)cc1 | 40 nM

Row | SMILES | IC50
26 | NC(=O)c1cc2nc(Nc3ccc(F)cc3)nc(NC3CCC3)c2[nH]1 | 200 nM
27 | COc1ccc(CN2CCCC(C(=O)c3ccc(C(F)(F)F)cc3)C2)c(O)c1 (stereo not given) | 850 nM
28 | CN(CCN)Cc1cccc(-c2cccc(-c3nc4ccc(C(F)(F)F)cc4[nH]3)c2)c1 | 510 nM
29 | Cc1ccc(Cl)cc1N1CCN(CCCNC(=O)C2CCN(c3nc4ccccc4[nH]3)CC2)CC1 | 900 nM
30 | Oc1ccc(Cc2cc(Oc3c(I)cc(CCc4ncc[nH]4)cc3I)ccc2O)cc1 | 710 nM
31 | COc1nc2c(CCN3CC[C@H](NCc4cc(C#N)c5c(c4)OCCO5)[C@H](O)C3)ccnc2cc1F | 780 nM
32 | COc1cc(NC(=O)c2cc3c(C)nn(-c4cccc(C(F)(F)F)c4)c3s2)cc(OC)c1OC | 800 nM
33 | Nc1nc(Nc2ccc(Cl)cc2)nc2ccccc12 | 730 nM
34 | CCCCc1ccc(-c2ccc3[nH]c(C)c(Br)c(=O)c3c2)cc1 | 110 nM
35 | O=C(Nc1ccc(S(=O)(=O)N2CCOCC2)cc1)c1cc(-c2cc(Cl)ccc2O)n[nH]1 | 770 nM
36 | CNC(=O)c1ccccc1Nc1nc(Nc2ccc(N3CCOCC3)cc2)ncc1Cl | 730 nM
37 | Cc1cnc(-c2ccc(NC(=O)c3coc4ccc(N5C[C@@H](C)N(C)[C@@H](C)C5)cc34)cc2)o1 | 650 nM
38 | CS(=O)(=O)Cc1cccc(Nc2ncc(Cl)c(Nc3cccnc3C(N)=O)n2)c1 | 170 nM
39 | Cc1cc(NC2CCCC2)nc(Nc2ccccc2F)n1 | 930 nM
40 | Cc1cc(OCC2CCCO2)c2cc(NC(=O)C(=O)Nc3ccc4nc(C)cc(OCC5CCCO5)c4c3)ccc2n1 (stereo not given) | 800 nM
41 | COc1ccc(-c2cnc3[nH]cc(-c4ccc(C(=O)O)cc4)c3c2)cn1 | 540 nM
42 | O=C(Nc1ccccc1)N(Cc1ccccc1-c1cccc(CNC2CCCC2)c1)C1CCN(Cc2ccccc2)CC1 | 170 nM
43 | Cc1ccc(NC(=O)c2cccc(CN3CCCN(Cc4cccc(O)c4)CC3)c2)cc1C | 1040 nM
44 | Fc1ccccc1C=NNc1ccnc2ccc(C(F)(F)F)cc12 | 870 nM
45 | CCCc1ccc(S(=O)(=O)Nc2ccc3c(c2)CCC3)cc1 | 880 nM
46 | Cc1cc(N)c2cc(NC(=O)CCC(=O)Nc3ccc4nc(C)cc(N)c4c3)ccc2n1 | 950 nM
47 | COc1ccc2ccccc2c1C=NNc1cc(C)nc2cc(C(F)(F)F)ccc12 | 1040 nM
48 | COc1cc2c(cc1OC)CC(NCCCCCCNCCc1ccc(Cl)cc1)CC2 (stereo not given) | 740 nM
49 | CCCN1CCN(Cc2ccc(-c3ccc(-c4nc5ccccc5[nH]4)s3)cc2)CC1 | 610 nM
50 | CN1CCC(c2c[nH]c3ccc(NC(=O)Nc4ccc(-c5ccncc5)cc4Cl)cc23)CC1 | 840 nM
